Patent US11040959B2, “Diprovocims: a new and potent class of TLR agonists” (The Scripps Research Institute, priority 2016, dated 2021)
Read-outs that look alike come from different tables or passages of the source.

Tests used:
[1] = system: differentiated human THP-1 cells; assay: stimulated release of TNF-α from differentiated human THP-1 cells (ELISA, dose-response); format: cell-based; settings: Homo sapiens
Experimental: A screening campaign was conducted with nearly 100,000 compounds [(a) Whitby et al., Acc. Chem. Res. 2012, 45:1698-1709; and (b) Boger et al., Angew. Chem. Int. Ed. 2003, 42:4138-4176], using a newly developed functional assay that measured the stimulated release of TNF-α from treated human THP-1 cells partially differentiated along the macrophage line [unpublished results of the inventors and co-workers]. […] The libraries screened in the efforts represent a unique compound collection populated by nontraditional compounds [(a) Whitby et al., Acc. Chem. Res. 2012, 45:1698-1709; and (b) Boger et al., Angew. Chem. Int. Ed. 2003, 42:4138-4176] designed to target protein-protein [(a) Shaginian et al., J. Am. Chem. Soc. 2009, 131:5564-5572; and (b) Whitby et al., J. Am. Chem. Soc. 2011, 133:10184-10194] or protein-DNA interactions [Stover et al., J. Am. Chem. Soc. 2009, 131:3342-3348] as well as the major enzyme classes [Otrubova et al., Bioorg. Med. Chem. Lett. 2014, 24:3807-3813].
Hits were confirmed in an ELISA assay for stimulated TNF-α release from human PMA differentiated THP-1 cells and this assay was used for establishing dose-response curves and measured EC50 values.

[2] = system: mouse macrophages; assay: stimulated release of TNF-α from mouse macrophages; format: cell-based; settings: Macrophage
Description: EC50 values are derived from dose-response curves for the stimulated release of TNF-α from differentiated THP-1 cells or mouse macrophages are shown beneath each appropriate structural formula of Compounds 8-12. Half maximal effective concentration (EC50) refers to the concentration of a drug, antibody or toxicant that induces a response halfway between the baseline and maximum after a specified exposure time. It is commonly used as a measure of a drug's potency.

[3] = THP-1, Table 7, TNF-α release from human THP-1 cells, read-out: EC50 (nM) (THP-1)
[4] = Table 7, TNF-α release from mouse macrophages, read-out: EC50 (nM) (mouse)
[5] = THP-1, Scheme 1, footnote a, read-out: EC50 TNF-α release from human THP-1 cells
[6] = Mus musculus, Scheme 1, footnote b, read-out: EC50 TNF-α release from mouse macrophages
[7] = THP-1, Table 1, TNF-α release from human THP-1 cells, read-out: EC50 (nM) (THP-1)
[8] = Table 1, TNF-α release from mouse macrophages, read-out: EC50 (nM) (mouse)
[9] = THP-1, Table 3, TNF-α release from human THP-1 cells, read-out: EC50 (nM) (THP-1)
[10] = Table 3, TNF-α release from mouse macrophages, read-out: EC50 (nM) (mouse)
[11] = THP-1, table of 140-146 (four lipid side chains), human THP-1 cells, read-out: EC50 (nM) (THP-1)
[12] = table of 140-146 (four lipid side chains), mouse macrophages, read-out: EC50 (nM) (mouse)

**Q.** For `O=C(NCCc1ccc(F)cc1)[C@@H]1CN(C(=O)/C=C/C(=O)N2C[C@@H](C(=O)NCCc3ccc(F)cc3)[C@H](C(=O)NCCc3ccc(F)cc3)C2)C[C@H]1C(=O)NCCc1ccc(F)cc1` [Compound 101, (3S,3′S,4S,4′S)-1,1′-Fumaroylbis-(N^3,N^4-bis(4-fluorophnethyl)pyrrolidine-3,4-dicarboxamide)], which EC50 [1, 3] is on record?
**A.** > 5000 nM

**Q.** And the EC50 [2, 4]?
**A.** > 5000 nM

**Q.** How did the EC50 [1, 5] turn out when `O=C(N[C@H]1C[C@@H]1c1ccccc1)[C@H]1CN(C(=O)c2ccc(C(=O)N3C[C@H](C(=O)N[C@@H]4C[C@H]4c4ccccc4)[C@@H](C(=O)N[C@@H]4C[C@H]4c4ccccc4)C3)cc2)C[C@@H]1C(=O)N[C@H]1C[C@@H]1c1ccccc1` [Compound 26, (3R,4R)-1-(4-((3R,4R)-3,4-Bis(((1R,2S)-2-phenylcyclopropyl)carbamoyl)-pyrrolidine-1-carbonyl)-benzoyl)—N^3,N^4-bis((1S,2R)-2-phenylcyclopropyl)-pyrrolidine-3,4-dicarboxamide] was run?
**A.** ≥ 5000 nM

**Q.** What about the EC50 [2, 6] of the same compound?
**A.** > 5000 nM

**Q.** Which EC50 ([1]; THP-1, table of functionalized derivatives 147-151, human THP-1 cells, read-out: EC50 (nM) (THP-1)) does the source give for `CC(C)(C)OC(=O)CCOCCOCCOCCNC(=O)COc1cc(C(=O)N2C[C@@H](C(=O)N[C@H]3C[C@@H]3c3ccccc3)[C@H](C(=O)N[C@H]3C[C@@H]3c3ccccc3)C2)ccc1C(=O)N1C[C@@H](C(=O)N[C@H]2C[C@@H]2c2ccccc2)[C@H](C(=O)N[C@H]2C[C@@H]2c2ccccc2)C1` [Compound 149, tert-Butyl 1-(2,5-Bis((3S,4S)-3,4-bis(((1S,2R)-2-phenylcyclopropyl)carbamoyl)pyrrolidine-1-carbonyl)phenoxy)-2-oxo-6,9,12-trioxa-3-azapentadecan-15-oate] here?
**A.** 20 nM

**Q.** And the EC50 ([2]; table of functionalized derivatives 147-151, mouse macrophages, read-out: EC50 (nM) (mouse))?
**A.** 150 nM

**Q.** How did the EC50 [1, 7] turn out when `O=C(N[C@H]1C[C@@H]1c1ccccc1)[C@@H]1CN(C(=O)c2cccc(C(=O)N3C[C@@H](C(=O)N[C@H]4C[C@@H]4c4ccccc4)[C@H](C(=O)N[C@H]4C[C@@H]4c4ccccc4)C3)c2)C[C@H]1C(=O)N[C@H]1C[C@@H]1c1ccccc1` [Compound 38, (3S,3′S,4S,4′S)-1,1′-Isophthaloyl-bis-(N^3,N^4-bis((1S,2R)-2-phenylcyclopropyl)-pyrrolidine-3,4-dicarboxamide)] was run?
**A.** > 5000 nM

**Q.** And the EC50 [2, 8]?
**A.** > 5000 nM

**Q.** Which EC50 [1, 9] does the source give for `O=C(N[C@H]1C[C@@H]1c1ccccc1)[C@@H]1CN(C(=O)c2ccc(C(=O)N3C[C@@H](C(=O)N[C@H]4C[C@@H]4c4ccccc4)[C@H](C(=O)N[C@H]4C[C@@H]4c4ccccc4)C3)c(O)c2)C[C@H]1C(=O)N[C@H]1C[C@@H]1c1ccccc1` [Compound 53, (3S,3′S,4S,4′S)-1,1′-(2-Hydroxyterephthaloyl)-bis(N^3,N^4-bis((1S,2R)-2-phenylcyclopropyl)pyrrolidine-3,4-dicarboxamide)] here?
**A.** 0.2 nM

**Q.** And the EC50 [2, 10]?
**A.** 130 nM

**Q.** With `O=C(N[C@H]1C[C@@H]1c1ccccc1)[C@@H]1CN(C(=O)c2cnc(C(=O)N3C[C@@H](C(=O)N[C@H]4C[C@@H]4c4ccccc4)[C@H](C(=O)N[C@H]4C[C@@H]4c4ccccc4)C3)cn2)C[C@H]1C(=O)N[C@H]1C[C@@H]1c1ccccc1` [Compound 50, (3S,3′S,4S,4′S)-1,1′-(Pyrazine-2,5-dicarbonyl)-bis(N^3,N^4-bis((1S,2R)-2-phenylcyclopropyl)-pyrrolidine-3,4-dicarboxamide)] as the compound, how does the EC50 [1, 9] read?
**A.** 130 nM

**Q.** What about the EC50 [2, 10] of the same compound?
**A.** > 5000 nM

**Q.** Which results are given for `O=C(N[C@H]1C[C@@H]1c1ccccc1)C1CN(C(=O)C#CC(=O)N2C[C@@H](C(=O)N[C@H]3C[C@@H]3c3ccccc3)[C@H](C(=O)N[C@H]3C[C@@H]3c3ccccc3)C2)C[C@H]1C(=O)N[C@H]1C[C@@H]1c1ccccc1` (stereo partly drawn) [Compound 35, (3S,3′S,4S,4′S)-1,1′-(But-2-ynedioyl)-bis(N^3,N^4-bis((1S,2R)-2-phenylcyclopropyl)-pyrrolidine-3,4-dicarboxamide)]?
**A.** EC50 [1, 7]: > 5000 nM; EC50 [2, 8]: > 5000 nM

**Q.** What does the source list for `O=C(NCCc1ccc(F)cc1)[C@@H]1CN(C(=O)[C@@H]2CCC[C@@H](C(=O)N3C[C@@H](C(=O)NCCc4ccc(F)cc4)[C@H](C(=O)NCCc4ccc(F)cc4)C3)C2)C[C@H]1C(=O)NCCc1ccc(F)cc1` [Compound 106, (3S,3′S,4S,4′S)-1,1′-((1R,3R)-Cyclohexane-1,3-dicarbonyl)bis(N^3,N^4-bis(4-fluorophenethyl)-pyrrolidine-3,4-dicarboxamide)]?
**A.** EC50 [1, 3]: > 5000 nM; EC50 [2, 4]: > 5000 nM

**Q.** `O=C(N[C@H]1C[C@@H]1c1ccccc1)[C@@H]1CN(C(=O)c2cc(Br)c(C(=O)N3C[C@@H](C(=O)N[C@H]4C[C@@H]4c4ccccc4)[C@H](C(=O)N[C@H]4C[C@@H]4c4ccccc4)C3)cc2Br)C[C@H]1C(=O)N[C@H]1C[C@@H]1c1ccccc1` [Compound 62, (3S,3′S,4S,4′S)-1,1′-(2,5-Dibromoterephthaloyl)-bis(N^3,N^4-bis((1S,2R)-2-phenylcyclopropyl)pyrrolidine-3,4-dicarboxamide)] was tested. Which EC50 [1, 9] did it give?
**A.** 860 nM

**Q.** And the EC50 [2, 10]?
**A.** > 5000 nM

**Q.** With `CCCCCCCCNC(=O)[C@@H]1CN(C(=O)c2ccc(C(=O)N3C[C@@H](C(=O)NCCCCCCCC)[C@H](C(=O)NCCCCCCCC)C3)cc2)C[C@H]1C(=O)NCCCCCCCC` [Compound 144, (3S,3′S,4S,4′S)-1,1′-Terephthaloylbis(N^3,N^4-dioctylpyrrolidine-3,4-dicarboxamide)] as the compound, how does the EC50 [1, 11] read?
**A.** > 5000 nM

**Q.** What about the EC50 [2, 12] of the same compound?
**A.** > 5000 nM

**Q.** What does the source list for `O=C(N[C@@H]1C[C@H]1c1ccccc1)[C@H]1CN(C(=O)c2ccc(C(=O)N3C[C@H](C(=O)N[C@@H]4C[C@H]4c4ccccc4)[C@@H](C(=O)N[C@@H]4C[C@H]4c4ccccc4)C3)cc2)C[C@@H]1C(=O)N[C@@H]1C[C@H]1c1ccccc1` [Compound 21, (3R,3′R,4R,4′R)-1,1′-Terephthaloylbis-(N^3,N^4-bis((1R,2S)-2-phenylcyclopropyl)pyrrolidine-3,4-dicarboxamide)]?
**A.** EC50 [1, 5]: > 5000 nM; EC50 [2, 6]: > 5000 nM

**Q.** How did the EC50 [1, 5] turn out when `O=C(N[C@@H]1C[C@H]1c1ccccc1)[C@@H]1CN(C(=O)c2ccc(C(=O)N3C[C@@H](C(=O)N[C@@H]4C[C@H]4c4ccccc4)[C@H](C(=O)N[C@@H]4C[C@H]4c4ccccc4)C3)cc2)C[C@H]1C(=O)N[C@@H]1C[C@H]1c1ccccc1` [Compound 20, (3S,3′S,4S,4′S)-1,1′-Terephthaloylbis-(N^3,N^4-bis((1R,2S)-2-phenylcyclopropyl)pyrrolidine-3,4-dicarboxamide)] was run?
**A.** > 5000 nM

**Q.** What about the EC50 [2, 6] of the same compound?
**A.** > 5000 nM

**Q.** How did the EC50 [1, 7] turn out when `O=C(N[C@H]1C[C@@H]1c1ccccc1)[C@@H]1CN(C(=O)[C@@H]2CCC[C@H](C(=O)N3C[C@@H](C(=O)N[C@H]4C[C@@H]4c4ccccc4)[C@H](C(=O)N[C@H]4C[C@@H]4c4ccccc4)C3)C2)C[C@H]1C(=O)N[C@H]1C[C@@H]1c1ccccc1` [Compound 41, (3S,3′S,4S,4′S)-1,1′-(cis-1,3-Cyclohexane-dicarbonyl)bis(N^3,N^4-bis((1S,2R)-2-phenyl-cyclopropyl)pyrrolidine-3,4-dicarboxamide)] was run?
**A.** > 5000 nM

**Q.** And the EC50 [2, 8]?
**A.** > 5000 nM

**Q.** Which results are given for `CCCCCCCCCCNC(=O)[C@@H]1CN(C(=O)c2ccc(C(=O)N3C[C@@H](C(=O)NCCCCCCCCCC)[C@H](C(=O)NCCCCCCCCCC)C3)cc2)C[C@H]1C(=O)NCCCCCCCCCC` [Compound 143, (3S,3′S,4S,4′S)-1,1′-Terephthaloylbis(N^3,N^4-didecylpyrrolidine-3,4-dicarboxamide)]?
**A.** EC50 [1, 11]: > 5000 nM; EC50 [2, 12]: > 5000 nM

**Q.** What does the source list for `O=C(NCCc1ccc(F)cc1)[C@@H]1CN(C(=O)C#CC(=O)N2C[C@@H](C(=O)NCCc3ccc(F)cc3)[C@H](C(=O)NCCc3ccc(F)cc3)C2)C[C@H]1C(=O)NCCc1ccc(F)cc1` [Compound 100, (3S,3′S,4S,4′S)-1,1′-(But-2-ynedi-oyl)bis(N^3,N^4-bis(4-fluorophenethyl)pyrrolidine-3,4-dicarboxamide)]?
**A.** EC50 [1, 3]: > 5000 nM; EC50 [2, 4]: > 5000 nM

**Q.** For `O=C(N[C@H]1C[C@@H]1c1ccccc1)[C@@H]1CN(C(=O)c2ccc(C(=O)N3C[C@@H](C(=O)N[C@H]4C[C@@H]4c4ccccc4)[C@H](C(=O)N[C@H]4C[C@@H]4c4ccccc4)C3)nc2)C[C@H]1C(=O)N[C@H]1C[C@@H]1c1ccccc1` [Compound 51, (3S,3′S,4S,4′S)-1,1′-(Pyridine-2,5-dicarbonyl)-bis(N^3,N^4-bis((1S,2R)-2-phenylcyclopropyl)-pyrrolidine-3,4-dicarboxamide)], which EC50 [1, 9] is on record?
**A.** 4 nM

**Q.** What about the EC50 [2, 10] of the same compound?
**A.** 270 nM
